Measurements taken from patent US20220348590A1, “CYCLOOXYGENASE-2 INHIBITORS AND USES THEREOF” (The Board Institute, Inc., priority 2019, published 2022).
Values after ≈ are worked out from the molar mass of the structure shown. Like-named read-outs stand apart in the source and are kept apart here.

Key:
[1] = biological target: T1, ovine COX-1 (oCOX-1) (Ovis aries, UniProt P05979); assay: LCMS-based COX-1 enzymatic inhibition assay (PGE2 quantification); format: biochemical
T1 construct: purchased Cayman Chemicals (Ann Arbor, Mich.)
T1 sequence (P05979 25-600): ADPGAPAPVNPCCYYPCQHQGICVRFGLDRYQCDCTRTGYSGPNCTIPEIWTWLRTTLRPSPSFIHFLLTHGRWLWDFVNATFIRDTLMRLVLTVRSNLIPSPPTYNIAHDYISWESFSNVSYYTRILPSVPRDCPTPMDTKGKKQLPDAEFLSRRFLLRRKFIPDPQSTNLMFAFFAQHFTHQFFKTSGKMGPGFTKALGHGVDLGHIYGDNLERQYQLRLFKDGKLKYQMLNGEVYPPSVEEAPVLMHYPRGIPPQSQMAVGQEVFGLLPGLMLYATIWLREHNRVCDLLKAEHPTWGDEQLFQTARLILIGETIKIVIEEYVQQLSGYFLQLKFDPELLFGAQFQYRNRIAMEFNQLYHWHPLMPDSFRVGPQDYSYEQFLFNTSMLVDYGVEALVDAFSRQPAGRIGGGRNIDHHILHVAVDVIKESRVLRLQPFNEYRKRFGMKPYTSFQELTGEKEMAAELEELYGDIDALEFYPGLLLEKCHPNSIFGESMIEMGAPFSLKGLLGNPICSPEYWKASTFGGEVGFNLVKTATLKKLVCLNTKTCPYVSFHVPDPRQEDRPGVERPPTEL
Procedure, shortened: (§1)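 PGE2 formed from arachidonic acid (final 5 μM, 2 min) was measured by LC-MS-MS against DMSO controls. Enzyme (oCOX-1 0.1 μg or hCOX2 0.2 μg) with hematin/epinephrine cofactors at pH 8.0 was given 10 min at 37 °C with compound first. Twelve-point curves run three times gave IC50.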

[2] = Human Microsome Stability; format: in vitro ADME; details: human microsomes
[3] = biological target: T2, human recombinant COX2 (hCOX2) (UniProt P35354); assay: LCMS-based COX2 enzymatic inhibition assay (PGE2 quantification); format: biochemical; parameters: COX2 2 minutes pge2/pge2d4 area ratio Avg; other: 2 minutes; readout pge2/pge2d4 area ratio; average; COX2 2 minutes pge2/pge2d4 area ratio Avg; LLE; average LLE; COX2 2 minutes pge2 area (counts) Avg; readout pge2 area (counts); other: 2 min; "ovine COX2 (oCOX2), human recombinant COX2 (hCOX2)"; details: 2 minutes; for COX2 2 minutes pge2/pge2d4 area ratio Avg. LLE / COX2 2 minutes pge2 area (counts) Avg. LLE: average LLE; for IC50: average
T2 sequence (P35354 1-604): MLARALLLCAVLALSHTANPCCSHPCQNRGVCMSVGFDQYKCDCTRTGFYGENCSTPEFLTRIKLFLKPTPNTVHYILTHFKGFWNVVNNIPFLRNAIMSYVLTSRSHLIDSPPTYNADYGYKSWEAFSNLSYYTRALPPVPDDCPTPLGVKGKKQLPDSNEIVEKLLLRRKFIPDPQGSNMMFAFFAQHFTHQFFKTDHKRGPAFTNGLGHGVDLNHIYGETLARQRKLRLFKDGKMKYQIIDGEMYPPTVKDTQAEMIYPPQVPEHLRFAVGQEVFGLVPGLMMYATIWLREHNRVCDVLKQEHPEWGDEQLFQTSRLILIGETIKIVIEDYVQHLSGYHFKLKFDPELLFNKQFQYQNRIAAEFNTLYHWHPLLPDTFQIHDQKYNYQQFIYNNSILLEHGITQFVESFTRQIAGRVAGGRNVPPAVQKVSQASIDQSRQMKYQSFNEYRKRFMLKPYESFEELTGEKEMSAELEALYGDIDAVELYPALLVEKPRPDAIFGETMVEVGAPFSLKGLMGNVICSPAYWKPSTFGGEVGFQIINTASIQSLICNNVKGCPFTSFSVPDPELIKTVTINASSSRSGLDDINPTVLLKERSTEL
Procedure, shortened: as §1

[4] = rat plasma protein binding (PPB) assay; format: in vitro ADME; details: average, read-out: Rat Plasma Protein Binding % Bound Avg (converted)
Protocol: We have adapted a previously reported cyclooxygenase enzymatic assay utilizing LCMS quantification of PGE2 as the product of COX-1 and COX2 catalyzed conversion of arachidonic acid to evaluate the binding properties of newly synthesized ligands [Cao, 2011]. These optimized and miniaturized (384-well plates) LCMS-based COX-1 and COX2 enzymatic assays enabled us to quickly evaluate newly synthesized ligands for COX2 binding affinity and selectivity vs COX-1. Using a shorter ligand-enzyme incubation time in the LCMS assay (2 minutes vs 10 minutes) also permitted us to prioritize ligands with faster binding kinetics. Considering the relatively slow on-rate kinetics of known coxibs, due to their 3-step binding mechanism [Marnett, 2009], we believe that optimizing this critical parameter will be key to the successful development of a COX2 PET tracer. Using these enzymatic assays, we have evaluated>200 newly synthesized ligands against COX2 and >20 ligands against COX-1. Another critical property necessary for a good PET radiotracer is to have low non-specific binding (NSB) to increase the free fraction and maximize the signal to noise ratio. This property can be evaluated using in-vitro protein binding assays, and we have now evaluated>50 newly synthesized ligands in mouse, rat and human plasma protein binding (PPB) assays as well as >15 ligands in a mouse brain protein binding (BPB) assay.

[5] = Rat Plasma Protein Stability (% Remaining); format: in vitro ADME; details: average
[6] = Mouse Plasma Protein Stability (% Remaining); format: in vitro ADME; details: average
[7] = PBS Solubility (no DMSO); format: physicochemical; details: aqueous buffer, thermodynamic from solid, average
[8] = 10 minutes, readout pge2/pge2d4 area ratio, average LLE
[9] = 10 minutes, readout pge2 area (counts), average LLE
[10] = readout pge2/pge2d4 area ratio, read-out: COX2 2 minutes pge2/pge2d4 area ratio Avg. IC50
[11] = readout pge2 area (counts), read-out: COX2 2 minutes pge2 area (counts) Avg. IC50
[12] = 10 minutes, pge2/pge2d4 area ratio, head of this section not shown, inferred
[13] = 10 minutes, pge2 area (counts), head of this section not shown, inferred
[14] = 10 minutes, readout pge2 area (counts), average, read-out: COX1 10 minutes pge2 area (counts) Avg. IC50

SMILES | IC50 [1] | COX1 10 minutes pge2/pge2d4 area ratio Avg. LLE [1, 8] | COX1 10 minutes pge2 area (counts) Avg. LLE [1, 9] | Human Microsome Stability % Remaining Avg [2] | COX2 2 minutes pge2/pge2d4 area ratio Avg. LLE ([3]; readout pge2/pge2d4 area ratio) | IC50 [3, 10] | COX2 2 minutes pge2 area (counts) Avg. LLE ([3]; readout pge2 area (counts)) | IC50 [3, 11] | fraction unbound [4] | Rat Plasma Protein Stability % Remaining Avg [5] | COX1 10 minutes pge2/pge2d4 area ratio Avg. LLE [1, 12] | COX1 10 minutes pge2 area (counts) Avg. LLE [1, 13] | Mouse Plasma Protein Stability % Remaining Avg [6] | IC50 [1, 14] | IC50 ([1]; 10 minutes, readout pge2/pge2d4 area ratio, average, read-out: COX1 10 minutes pge2/pge2d4 area ratio Avg. IC50) | solubility [7]
CS(=O)(=O)c1ccc(-c2cccc(OCc3ccco3)n2)cc1 [Compound 28] | 52000 nM | 1.104 | 1.104 | 15% | 4.722 | 13.6 nM | 4.78 | 12.6 nM | 0.025 | 102.8% | – | – | – | – | – | –
CS(=O)(=O)c1ccc(-c2nc(NCc3ccco3)ccc2F)cc1 [Compound 218] | – | – | – | 15% | 3.092 | 1610 nM | 3.132 | 1720 nM | – | – | – | – | – | – | – | –
CS(=O)(=O)c1ccc(-c2cccc(NCc3cccs3)n2)cn1 [Compound 59] | 52000 nM | – | – | 28% | 5.112 | 32 nM | 5.062 | 42.6 nM | – | – | 1.754 | 1.754 | – | – | – | –
Cc1cc(CNc2cccc(-c3ccc(S(C)(=O)=O)cc3)n2)co1 [Compound 27] | 52000 nM | 1.134 | 1.134 | 8.8% | 4.789 | 13.3 nM | 4.853 | 10.9 nM | 0.037 | 99.7% | – | – | – | – | – | –
COc1ncc(OCc2cccs2)nc1-c1ccc(S(C)(=O)=O)cc1 [Compound 8] | – | – | – | – | 5.399 | 6.59 nM | 5.446 | 7.15 nM | – | – | – | – | 92.8% | – | – | –
CS(=O)(=O)c1ccc(-c2cccc(NCc3ccc(F)cc3)n2)cc1 [Compound 13] | – | – | – | 62% | 4.5476 | 8.78 nM | 4.59 | 8.19 nM | 0.021 | 101% | – | – | – | – | – | –
CS(=O)(=O)c1ccc(-c2cccc(/C=C\c3cccs3)n2)cc1 [Compound 41] | 52000 nM | 0.234 | 0.2543 | – | 3.735 | 19 nM | 3.716 | 21.7 nM | 0.021 | 100% | – | – | – | 49600 nM | – | –
CS(=O)(=O)c1ccc(-c2cncc(SCc3ccoc3)n2)cc1 [Compound 12] | – | 1.784 | 1.801 | – | 5.445 | 8.44 nM | 5.417 | 9.78 nM | 0.006 | 95% | – | – | – | 37700 nM | 38500 nM | 7.4 µM (≈ 2.56 µg/mL)
CS(=O)(=O)c1ccc(-c2ccc3ccn(Cc4ccco4)c3n2)cc1 [Compound 61] | 52000 nM | – | – | – | 3.446 | 33.3 nM | 3.403 | 37 nM | – | – | 0.214 | 0.214 | – | – | – | –
COc1ccc(NCc2ccoc2)nc1-c1ccc(S(C)(=O)=O)cc1 [Compound 66] | 52000 nM | – | – | – | 4.554 | 37.3 nM | 4.505 | 42 nM | – | – | 1.364 | 1.364 | – | – | – | –
